Data: patent US20240132431A1, “METHOD FOR ALKYLATING ACIDIC FUNCTIONAL GROUP” (Chugai Seiyaku Kabushiki Kaisha, priority 2021, published 2024)
Where two headings read alike, the source gives them in different places.

Assays:
[1] = biological target: T1, Bcl-2 protein (Recombinant Human Bcl-2 Protein) (Homo sapiens, UniProt P10415); experiment: Binding evaluation of mixture library compounds to Bcl-2 using AS-MS (affinity selection mass spectrometry); conditions: for ASMS ratio (%) n = 1: replicate n = 1; for ASMS ratio (%) n = 1 / ASMS ratio (%) n = 2: ASMS Ratio(%)=(A−C)/B×100; for ASMS ratio (%) n = 2: replicate n = 2
T1 construct: purchased Novus NBP2-34889
T1 sequence (P10415 whole entry): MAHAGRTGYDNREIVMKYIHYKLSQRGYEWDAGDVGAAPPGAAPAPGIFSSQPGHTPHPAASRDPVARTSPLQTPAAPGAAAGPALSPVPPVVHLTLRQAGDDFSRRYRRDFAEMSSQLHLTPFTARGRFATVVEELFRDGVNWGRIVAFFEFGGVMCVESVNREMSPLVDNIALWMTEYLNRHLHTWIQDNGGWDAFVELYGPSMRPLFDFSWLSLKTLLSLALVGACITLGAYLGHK
Method in brief: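 Affinity selection MS: Bcl-2 20 μM + 1200-cpd mixture, […]/cpd, Tris pH 7.4 buffer w/ Tween-20, DTT; 1 h 23° C dark; P-2 spin SEC; MeCN/MeOH extraction; RP LC/MS. ASMS Ratio(%) = (A−C)/B×100.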

[2] = biological target: T2, human Bcl-2 protein (Homo sapiens, UniProt P10415); experiment: Binding evaluation of compounds to Bcl-2 by surface plasmon resonance (SPR); conditions: for equilibrium dissociation constant KD compared to compound B2Q045-01: binding to Bcl-2
T2 construct: purchased Novus Biologicals
T2 sequence (P10415 whole entry): as above
Method: In order to analyze the binding affinity of the compounds shown in [Table AK-O1] and synthesized in Example 8 to Bcl-2, the surface plasmon resonance method was used. Biacore T200 (GE Healthcare) was used as the apparatus, and HBS (10 mM HEPES-NaOH, 150 mM NaCl, pH 7.4) to which 1 mM DTT, 3 mM EDTA, 0.01% Tween 20, and 4% DMSO had been added was used as the running buffer. The human Bcl-2 protein (Novus Biologicals) was biotinylated using EZ-Link Sulfo-NHS-LC-LC-biotin (Thermofisher scientific) and immobilized on the surface of Sensor Chip SA (GE Healthcare). Thereafter, compound solutions of multiple concentrations and the running buffer (blank) were added to the Bcl-2 immobilized surface to obtain the binding response of the compounds. The measurement was carried out at 15° C.

[3] = first value in parentheses, (A−C)/B×100, 1200-compound mixture, Bcl-2 20 μM
[4] = second value in parentheses, (A−C)/B×100, 1200-compound mixture, Bcl-2 20 μM
[5] = Biacore T200, biotinylated human Bcl-2 immobilized on Sensor Chip SA, 15° C., compounds found by AS-MS evaluation of synthesized library
[6] = Biacore T200, biotinylated human Bcl-2 immobilized on Sensor Chip SA, 15° C., compounds found by AS-MS evaluation of synthesized library, read-out: Equilibrium dissociation constant KD
[7] = binding to Bcl-2, compounds evaluated before library synthesis, read-out: KD
[8] = AS-MS on the mixture of 1200 library compounds
[9] = AS-MS, mixture of 1200 compounds, Bcl-2

Compound: CCOc1cncc(-c2ccc(C(C)N3CCN(c4ccc(C(=O)NS(=O)(=O)c5ccc(NCCSc6ccccc6)c([N+](=O)[O-])c5)cc4)CC3)cc2)c1 (stereo not drawn) [B2Q098-01, 4-[4-[1-[4-(5-ethoxypyridin-3-yl)phenyl]ethyl]piperazin-1-yl]-N-[3-nitro-4-(2-phenylsulfanylethylamino)phenyl]sulfonylbenzamide]
- ASMS ratio (%) n = 1 ([1]; AS-MS, mixture library, Bcl-2): 61.6%
- ASMS ratio (%) n = 2 ([1]; AS-MS, mixture library, Bcl-2): 90.8%
- ASMS ratio (%) [1, 3]: 61.6%
- ASMS ratio (%) [1, 4]: 90.8%
- Equilibrium dissociation constant KD [2, 5]: Binding not observed

Compound: CCOc1cncc(-c2ccc(CN3CCN(c4ccc(C(=O)NS(=O)(=O)c5ccc(NCCSc6ccccc6)c([N+](=O)[O-])c5)cc4)CC3)cc2C)c1 [B2Q048-01, 4-[4-[[4-(5-ethoxypyridin-3-yl)-3-methylphenyl]methyl]piperazin-1-yl]-N-[3-nitro-4-(2-phenylsulfanylethylamino)phenyl]sulfonylbenzamide]
- ASMS ratio (%) n = 1 ([1]; AS-MS, mixture library, Bcl-2): 61.6%
- ASMS ratio (%) n = 2 ([1]; AS-MS, mixture library, Bcl-2): 90.8%
- ASMS ratio (%) [1, 3]: 61.6%
- ASMS ratio (%) [1, 4]: 90.8%
- Kd [2, 6]: 480 nM
- equilibrium dissociation constant KD compared to compound B2Q045-01 [2]: smaller equilibrium dissociation constants KD

Compound: CCOc1cccc(-c2ccc(CN3CCN(c4ccc(C(=O)NS(=O)(=O)c5ccc(NCCSc6ccccc6)c([N+](=O)[O-])c5)cc4)CC3)cc2C)c1 [B2Q047-01, 4-[4-[[4-(3-ethoxyphenyl)-3-methylphenyl]methyl]piperazin-1-yl]-N-[3-nitro-4-(2-phenylsulfanylethylamino)phenyl]sulfonylbenzamide]
- ASMS ratio (%) n = 1 ([1]; AS-MS, mixture library, Bcl-2): 142.5%
- ASMS ratio (%) n = 2 ([1]; AS-MS, mixture library, Bcl-2): 326.4%
- ASMS ratio (%) [1, 3]: 142.5%
- ASMS ratio (%) [1, 4]: 326.4%
- Kd [2, 6]: 700 nM
- equilibrium dissociation constant KD compared to compound B2Q045-01 [2]: smaller equilibrium dissociation constants KD

Compound: CCOc1cncc(-c2ccccc2CCC(=O)N2CCN(c3ccc(C(=O)NS(=O)(=O)c4ccc(NCCSc5ccccc5)c([N+](=O)[O-])c4)nn3)CC2)c1 [B2Q012-01, 6-[4-[3-[2-(5-ethoxypyridin-3-yl)phenyl]propanoyl]piperazin-1-yl]-N-[3-nitro-4-(2-phenylsulfanylethylamino)phenyl]sulfonylpyridazine-3-carboxamide]
- ASMS ratio (%) n = 1 ([1]; AS-MS, mixture library, Bcl-2): 21.4%
- ASMS ratio (%) n = 2 ([1]; AS-MS, mixture library, Bcl-2): 22.5%
- ASMS ratio (%) [1, 3]: 21.4%
- ASMS ratio (%) [1, 4]: 22.5%
- Equilibrium dissociation constant KD [2, 5]: Bound

Compound: CCOc1cncc(-c2ccc(CN3CCN(c4ccc(C(=O)NS(=O)(=O)c5ccc(NCCSc6ccccc6)c(C(F)(F)F)c5)nn4)CC3)cc2C)c1 [B2R074-01, 6-[4-[[4-(5-ethoxypyridin-3-yl)-3-methylphenyl]methyl]piperazin-1-yl]-N-[4-(2-phenylsulfanylethylamino)-3-(trifluoromethyl)phenyl]sulfonylpyridazine-3-carboxamide]
- ASMS ratio (%) [1, 3]: 22.4%
- ASMS ratio (%) ([1]; n = 1): 22.4%
- ASMS ratio (%) ([1]; n = 2): 25.4%
- ASMS ratio (%) [1, 4]: 25.4%
- Equilibrium dissociation constant KD [2, 5]: Binding not observed

Compound: CCOc1cccc(-c2ccccc2CN2CCN(c3ccc(C(=O)NS(=O)(=O)c4ccc(NCCSc5ccccc5)c(C(F)(F)F)c4)cc3)CC2)c1 [B2R045-01, 4-[4-[[2-(3-ethoxyphenyl)phenyl]methyl]piperazin-1-yl]-N-[4-(2-phenylsulfanylethylamino)-3-(trifluoromethyl)phenyl]sulfonylbenzamide]
- ASMS ratio (%) ([1]; n = 1): 4.8%
- ASMS ratio (%) ([1]; n = 2): −3.4%
- Equilibrium dissociation constant KD ([2]; Biacore T200, 15° C., compounds synthesized before performing library synthesis): Bound
- Kd [2, 7]: > 20000 nM

Compound: CCOc1cncc(-c2ccccc2CN2CCN(c3ccc(C(=O)NS(=O)(=O)c4ccc(NCCSc5ccccc5)c([N+](=O)[O-])c4)cc3)CC2)c1 [B2Q046-01, 4-[4-[[2-(5-ethoxypyridin-3-yl)phenyl]methyl]piperazin-1-yl]-N-[3-nitro-4-(2-phenylsulfanylethylamino)phenyl]sulfonylbenzamide]
- ASMS ratio (%) n = 1 ([1]; AS-MS, mixture library, Bcl-2): 20.3%
- ASMS ratio (%) n = 2 ([1]; AS-MS, mixture library, Bcl-2): 20.5%
- ASMS ratio (%) [1, 3]: 20.3%
- ASMS ratio (%) [1, 4]: 20.5%
- Kd [2, 7]: 8100 nM

Compound: CCOc1cccc(-c2ccc(CN3CCN(c4ccc(C(=O)N(C)CC56CC7CC(CC(C7)C5)C6)nn4)CC3)cc2C)c1 [B3A073-01, N-(1-adamantylmethyl)-6-[4-[[4-(3-ethoxyphenyl)-3-methylphenyl]methyl]piperazin-1-yl]-N-methylpyridazine-3-carboxamide]
- ASMS ratio (%) n = 1 [1, 8]: 31.3%
- ASMS ratio (%) n = 2 [1, 8]: 28.6%
- ASMS ratio (%) [1, 3]: 31.3%
- ASMS ratio (%) [1, 4]: 28.6%
- Equilibrium dissociation constant KD [2, 5]: Binding not observed

Compound: CCOc1cccc(-c2ccc(CN3CCN(c4ccc(C(=O)NS(=O)(=O)c5ccc(NCCSc6ccccc6)c([N+](=O)[O-])c5)cc4)CC3)c(OC)c2)c1 [B2Q053-01, 4-[4-[[4-(3-ethoxyphenyl)-2-methoxyphenyl]methyl]piperazin-1-yl]-N-[3-nitro-4-(2-phenylsulfanylethylamino)phenyl]sulfonylbenzamide]
- ASMS ratio (%) n = 1 ([1]; AS-MS, mixture library, Bcl-2): 22.4%
- ASMS ratio (%) n = 2 ([1]; AS-MS, mixture library, Bcl-2): 15.5%
- ASMS ratio (%) [1, 3]: 22.4%
- ASMS ratio (%) [1, 4]: 15.5%
- Equilibrium dissociation constant KD [2, 5]: Binding not observed

Compound: CCOc1cncc(-c2ccc(CN3CCN(c4ccc(C(=O)NS(=O)(=O)c5ccc(NCCSc6ccccc6)c([N+](=O)[O-])c5)cc4)CC3)c(OC)c2)c1 [B2Q054-01, 4-[4-[[4-(5-ethoxypyridin-3-yl)-2-methoxyphenyl]methyl]piperazin-1-yl]-N-[3-nitro-4-(2-phenylsulfanylethylamino)phenyl]sulfonylbenzamide]
- ASMS ratio (%) n = 1 ([1]; AS-MS, mixture library, Bcl-2): 44.1%
- ASMS ratio (%) n = 2 ([1]; AS-MS, mixture library, Bcl-2): 65.0%
- ASMS ratio (%) [1, 3]: 44.1%
- ASMS ratio (%) [1, 4]: 65.0%
- Kd [2, 6]: 1270 nM

Compound: CCOc1cccc(-c2ccccc2CN2CCN(c3ccc(C(=O)NS(=O)(=O)c4ccc(NCCSc5ccccc5)c([N+](=O)[O-])c4)cc3)CC2)c1 [B2Q045-01, 4-[4-[[2-(3-ethoxyphenyl)phenyl]methyl]piperazin-1-yl]-N-[3-nitro-4-(2-phenylsulfanylethylamino)phenyl]sulfonylbenzamide]
- ASMS ratio (%) n = 1 ([1]; AS-MS, mixture library, Bcl-2): 49.9%
- ASMS ratio (%) n = 2 ([1]; AS-MS, mixture library, Bcl-2): 49.9%
- ASMS ratio (%) [1, 3]: 49.9%
- ASMS ratio (%) [1, 4]: 49.9%
- Kd [2, 7]: 1200 nM

Compound: CCOc1cccc(-c2ccc(C(C)N3CCN(c4ccc(C(=O)NS(=O)(=O)c5ccc(NCCSc6ccccc6)c([N+](=O)[O-])c5)cc4)CC3)cc2)c1 (stereo not drawn) [B2Q097-01, 4-[4-[1-[4-(3-ethoxyphenyl)phenyl]ethyl]piperazin-1-yl]-N-[3-nitro-4-(2-phenylsulfanylethylamino)phenyl]sulfonylbenzamide]
- ASMS ratio (%) n = 1 ([1]; AS-MS, mixture library, Bcl-2): 142.5%
- ASMS ratio (%) n = 2 ([1]; AS-MS, mixture library, Bcl-2): 326.4%
- ASMS ratio (%) [1, 3]: 142.5%
- ASMS ratio (%) [1, 4]: 326.4%
- Equilibrium dissociation constant KD [2, 5]: Binding not observed

Compound: CCOc1cccc(-c2ccc(CN3CCN(c4ccc(C(=O)NCC56CC7CC(CC(C7)C5)C6)nn4)CC3)c(CC)c2)c1 [B1A075-01, N-(1-adamantylmethyl)-6-[4-[[4-(3-ethoxyphenyl)-2-ethylphenyl]methyl]piperazin-1-yl]pyridazine-3-carboxamide]
- ASMS ratio (%) n = 1 [1, 9]: 31.3%
- ASMS ratio (%) n = 2 [1, 9]: 28.6%
- ASMS ratio (%) [1, 3]: 31.3%
- ASMS ratio (%) [1, 4]: 28.6%
- Equilibrium dissociation constant KD [2, 5]: Binding not observed
